Structures are written as SMILES. A value given as a limit tells only on which side of the number the result lay.

In the test the test system is RAMOS cells (Burkitt's lymphoma cell line). The experiment in a line: Anti-proliferation assay (CellTiter-Glo). The test is classed as cell-based. Conditions: Homo sapiens, 72 h, 3 days. As to the method: In cell growth experiments, cells were seeded in 96-well cell culture plates at a density of 3000 of RAMOS cells/well in 100 μL of culture medium. 100 μL of the diluted solution containing the tested compound was added to the appropriate wells of the cell plate. After addition of the tested compound, the cells were incubated at 37° C. in an atmosphere of 5% CO2 for 3 days. CellTiter-Glo (CTG) reagent from the Promega CellTiter-Glo Luminescent Cell Viability Assay kit (#G7572) was added into an OptiPlate 96 (Perkin Elmer, White, Opaque, #6005299) in the dark, incubated for at least 2 hrs, and luminescence signal was read using Tecan Safire II Multi-Mode Plate Reader. The GI50 was calculated by nonlinear regression analysis using GraphPad Prism5 software.
GI50 is the concentration for 50% of maximal inhibition of cell proliferation.
As usually defined, the GI50 is the concentration that inhibits growth by half. `Cc1sc2c(c1C)C(c1ccc(Cl)cc1)=N[C@@H](CC(=O)NCCOCCOCCOCCNc1ccc(-c3ccc4c(c3)CC(=O)N4)cn1)c1nnc(C)n1-2` [Compound 099, (S)-2-(4-(4-chlorophenyl)-2,3,9-trimethyl-6H-thieno[3,2-f][1,2,4]triazolo[4,3-a][1,4]diazepin-6-yl)-N-(2-(2-(2-(2-((5-(2-oxoindolin-5-yl)pyridin-2-yl)amino)ethoxy)ethoxy)ethoxy)ethyl)acetamide] registered a 50% growth inhibitory concentration (GI50) of 0.001 to 0.1 µM. For `Cc1sc2c(c1C)C(c1ccc(Cl)cc1)=N[C@@H](CC(=O)NCCOCCOCCOCCNc1ccc(-c3ccc4c(c3)NC(=O)C4)cn1)c1nnc(C)n1-2` [Compound 100, (S)-2-(4-(4-chlorophenyl)-2,3,9-trimethyl-6H-thieno[3,2-f][1,2,4]triazolo[4,3-a][1,4]diazepin-6-yl)-N-(2-(2-(2-(2-((5-(2-oxoindolin-6-yl)pyridin-2-yl)amino)ethoxy)ethoxy)ethoxy)ethyl)acetamide] the value was 0.1 to 1 µM. The result for `Cc1sc2c(c1C)C(c1ccc(Cl)cc1)=N[C@@H](CC(=O)NCCOCCOCCOCCNc1ccc(C(=O)Nc3ccc4c(c3)CC(=O)N4)cn1)c1nnc(C)n1-2` [Compound 101, (S)-6-((1-(4-(4-chlorophenyl)-2,3,9-trimethyl-6H-thieno[3,2-f][1,2,4]triazolo[4,3-a][1,4]diazepin-6-yl)-2-oxo-6,9,12-trioxa-3-azatetradecan-14-yl)amino)-N-(2-oxoindolin-5-yl)nicotinamide] reads 0.1 to 1 µM. `Cc1sc2c(c1C)C(c1ccc(Cl)cc1)=N[C@@H](CC(=O)Nc1ccc(OCCOCCOCCOCCNC(=O)c3cccc(-c4ccc5c(c4)NC(=O)C5)c3)cc1)c1nnc(C)n1-2` [Compound 102, (S)—N-(2-(2-(2-(2-(4-(2-(4-(4-chlorophenyl)-2,3,9-trimethyl-6H-thieno[3,2-f][1,2,4]triazolo[4,3-a][1,4]diazepin-6-yl)acetamido)phenoxy)ethoxy)ethoxy)ethoxy)ethyl)-3-(2-oxoindolin-6-yl)benzamide] had a concentration for 50% growth inhibition (GI50) of 0.1 to 1 µM. The result for `Cc1sc2c(c1C)C(c1ccc(Cl)cc1)=N[C@@H](CC(=O)Nc1ccc(OCCOCCOCCOCCNC(=O)c3cccc(-c4ccc5c(c4)CC(=O)N5)c3)cc1)c1nnc(C)n1-2` [Compound 103, (S)—N-(2-(2-(2-(2-(4-(2-(4-(4-chlorophenyl)-2,3,9-trimethyl-6H-thieno[3,2-f][1,2,4]triazolo[4,3-a][1,4]diazepin-6-yl)acetamido)phenoxy)ethoxy)ethoxy)ethoxy)ethyl)-3-(2-oxoindolin-5-yl)benzamide] reads 0.1 to 1 µM; that for `Cc1sc2c(c1C)C(c1ccc(Cl)cc1)=N[C@@H](CC(=O)Nc1ccc(OCCOCCOCCOCCNc3ccc(-c4ccc5c(c4)CC(=O)N5)cc3)cc1)c1nnc(C)n1-2` [Compound 104, (S)-2-(4-(4-chlorophenyl)-2,3,9-trimethyl-6H-thieno[3,2-f][1,2,4]triazolo[4,3-a][1,4]diazepin-6-yl)-N-(4-(2-(2-(2-(2-((4-(2-oxoindolin-5-yl)phenyl)amino)ethoxy)ethoxy)ethoxy)ethoxy)phenyl)acetamide], 0.001 to 0.1 µM. The result for `Cc1sc2c(c1C)C(c1ccc(Cl)cc1)=N[C@@H](CC(=O)NCCCCCNc1ncccc1-c1ccc3c(c1)CC(=O)N3)c1nnc(C)n1-2` [Compound 105, (S)-2-(4-(4-chlorophenyl)-2,3,9-trimethyl-6H-thieno[3,2-f][1,2,4]triazolo[4,3-a][1,4]diazepin-6-yl)-N-(5-((3-(2-oxoindolin-5-yl)pyridin-2-yl)amino)pentyl)acetamide] reads 0.001 to 0.1 µM; that for `Cc1sc2c(c1C)C(c1ccc(Cl)cc1)=N[C@@H](CC(=O)Nc1ccc(OCCOCCNC(=O)c3cccc(-c4ccc5c(c4)CC(=O)N5)c3)cc1)c1nnc(C)n1-2` [Compound 106, (S)—N-(2-(2-(4-(2-(4-(4-chlorophenyl)-2,3,9-trimethyl-6H-thieno[3,2-f][1,2,4]triazolo[4,3-a][1,4]diazepin-6-yl)acetamido)phenoxy)ethoxy)ethyl)-3-(2-oxoindolin-5-yl)benzamide], 0.001 to 0.1 µM. In the case of `Cc1sc2c(c1C)C(c1ccc(Cl)cc1)=N[C@@H](CC(=O)NCCOCCOCCOCCNc1ncccc1-c1ccc3c(c1)CC(=O)N3)c1nnc(C)n1-2` [Compound 107, (S)-2-(4-(4-chlorophenyl)-2,3,9-trimethyl-6H-thieno[3,2-f][1,2,4]triazolo[4,3-a][1,4]diazepin-6-yl)-N-(2-(2-(2-(2-((3-(2-oxoindolin-5-yl)pyridin-2-yl)amino)ethoxy)ethoxy)ethoxy)ethyl)acetamide], the concentration for 50% growth inhibition (GI50) was in the range of 0.001 to 0.1 µM. The result for `Cc1sc2c(c1C)C(c1ccc(Cl)cc1)=N[C@@H](CC(=O)NCCOCCOCCOCCNc1ncccc1-c1ccc3c(c1)NC(=O)C3)c1nnc(C)n1-2` [Compound 108, (S)-2-(4-(4-chlorophenyl)-2,3,9-trimethyl-6H-thieno[3,2-f][1,2,4]triazolo[4,3-a][1,4]diazepin-6-yl)-N-(2-(2-(2-(2-((3-(2-oxoindolin-6-yl)pyridin-2-yl)amino)ethoxy)ethoxy)ethoxy)ethyl)acetamide] reads 0.1 to 1 µM. The result for `Cc1sc2c(c1C)C(c1ccc(Cl)cc1)=N[C@@H](CC(=O)NCCOCCOCCOCCC(=O)NC1CCN(C(=O)c3ccc4c(c3)CC(=O)N4)CC1)c1nnc(C)n1-2` [Compound 109, (S)-3-(2-(2-(2-(2-(4-(4-chlorophenyl)-2,3,9-trimethyl-6H-thieno[3,2-f][1,2,4]triazolo[4,3-a][1,4]diazepin-6-yl)acetamido)ethoxy)ethoxy)ethoxy)-N-(1-(2-oxoindoline-5-carbonyl)piperidin-4-yl)propanamide] reads 0.001 to 0.1 µM; that for `Cc1sc2c(c1C)C(c1ccc(Cl)cc1)=N[C@@H](CC(=O)NCCOCCOCCOCCC(=O)NC1CCN(C(=O)c3ccc4c(c3)NC(=O)C4)CC1)c1nnc(C)n1-2` [Compound 110, (S)-3-(2-(2-(2-(2-(4-(4-chlorophenyl)-2,3,9-trimethyl-6H-thieno[3,2-f][1,2,4]triazolo[4,3-a][1,4]diazepin-6-yl)acetamido)ethoxy)ethoxy)ethoxy)-N-(1-(2-oxoindoline-6-carbonyl)piperidin-4-yl)propanamide], above 1 µM; that for `Cc1sc2c(c1C)C(c1ccc(Cl)cc1)=N[C@@H](CC(=O)NCCOCCOCCOCCC(=O)NC1CCCN(C(=O)c3ccc4c(c3)NC(=O)C4)C1)c1nnc(C)n1-2` (stereo partly drawn) [Compound 111, 3-(2-(2-(2-(2-((S)-4-(4-chlorophenyl)-2,3,9-trimethyl-6H-thieno[3,2-f][1,2,4]triazolo[4,3-a][1,4]diazepin-6-yl)acetamido)ethoxy)ethoxy)ethoxy)-N-(1-(2-oxoindoline-6-carbonyl)piperidin-3-yl)propanamide], above 1 µM. For `Cc1sc2c(c1C)C(c1ccc(Cl)cc1)=N[C@@H](CC(=O)NCCOCCOCCOCCC(=O)NC1CCCN(C(=O)c3ccc4c(c3)CC(=O)N4)C1)c1nnc(C)n1-2` (stereo partly drawn) [Compound 112, 3-(2-(2-(2-(2-((S)-4-(4-chlorophenyl)-2,3,9-trimethyl-6H-thieno[3,2-f][1,2,4]triazolo[4,3-a][1,4]diazepin-6-yl)acetamido)ethoxy)ethoxy)ethoxy)-N-(1-(2-oxoindoline-5-carbonyl)piperidin-3-yl)propanamide] the value was 0.1 to 1 µM. `Cc1sc2c(c1C)C(c1ccc(Cl)cc1)=N[C@@H](CC(=O)NCCOCCOCCOCCNc1cc(-c3ccc4c(c3)NC(=O)C4)ccn1)c1nnc(C)n1-2` [Compound 113, (S)-2-(4-(4-chlorophenyl)-2,3,9-trimethyl-6H-thieno[3,2-f][1,2,4]triazolo[4,3-a][1,4]diazepin-6-yl)-N-(2-(2-(2-(2-((4-(2-oxoindolin-6-yl)pyridin-2-yl)amino)ethoxy)ethoxy)ethoxy)ethyl)acetamide] had a concentration for 50% growth inhibition (GI50) of 0.1 to 1 µM. For `Cc1sc2c(c1C)C(c1ccc(Cl)cc1)=N[C@@H](CC(=O)NCCOCCOCCOCCOCCNc1ccc(-c3ccc4c(c3)CC(=O)N4)cn1)c1nnc(C)n1-2` [Compound 114, (S)-2-(4-(4-chlorophenyl)-2,3,9-trimethyl-6H-thieno[3,2-f][1,2,4]triazolo[4,3-a][1,4]diazepin-6-yl)-N-(14-((5-(2-oxoindolin-5-yl)pyridin-2-yl)amino)-3,6,9,12-tetraoxatetradecyl)acetamide] the value was 0.1 to 1 µM; for `Cc1sc2c(c1C)C(c1ccc(Cl)cc1)=N[C@@H](CC(=O)NCCOCCOCCOCCOCCOCCNc1ccc(-c3ccc4c(c3)CC(=O)N4)cn1)c1nnc(C)n1-2` [Compound 115, (S)-2-(4-(4-chlorophenyl)-2,3,9-trimethyl-6H-thieno[3,2-f][1,2,4]triazolo[4,3-a][1,4]diazepin-6-yl)-N-(17-((5-(2-oxoindolin-5-yl)pyridin-2-yl)amino)-3,6,9,12,15-pentaoxaheptadecyl)acetamide], 0.1 to 1 µM. In the case of `Cc1sc2c(c1C)C(c1ccc(Cl)cc1)=N[C@@H](CC(=O)NCCOCCOCCNc1ccc(-c3ccc4c(c3)CC(=O)N4)cn1)c1nnc(C)n1-2` [Compound 116, (S)-2-(4-(4-chlorophenyl)-2,3,9-trimethyl-6H-thieno[3,2-f][1,2,4]triazolo[4,3-a][1,4]diazepin-6-yl)-N-(2-(2-(2-((5-(2-oxoindolin-5-yl)pyridin-2-yl)amino)ethoxy)ethoxy)ethyl)acetamide], the 50% growth inhibitory concentration (GI50) fell in the range of 0.001 to 0.1 µM. For `Cc1sc2c(c1C)C(c1ccc(Cl)cc1)=N[C@@H](CC(=O)NCCOCCNc1ccc(-c3ccc4c(c3)CC(=O)N4)cn1)c1nnc(C)n1-2` [Compound 117, (S)-2-(4-(4-chlorophenyl)-2,3,9-trimethyl-6H-thieno[3,2-f][1,2,4]triazolo[4,3-a][1,4]diazepin-6-yl)-N-(2-(2-((5-(2-oxoindolin-5-yl)pyridin-2-yl)amino)ethoxy)ethyl)acetamide] the value was 0.001 to 0.1 µM.

For the origin of these results see US11542274B1, “Therapeutic compounds and methods of use thereof” (AGENCY FOR SCIENCE, TECHNOLOGY AND RESEARCH (A*STAR), priority 2019, dated 2023).
